In patent US20110275559A1, “Long-Acting Y2 and/or Y4 Receptor Agonists” (Novo Nordisk A/S, priority 2008, published 2011):
*1 amine or outer side, *2 acyl side, *3 side chain or, on linkers, in order; H or OH if unused. Where a SMILES comes first, the peptide text is derived from it. Side-chain parts run from the residue outwards. The star is where a group is joined. C20 diacid = O=C(O)CCCCCCCCCCCCCCCCCCC(=O)*; C18 diacid = O=C(O)CCCCCCCCCCCCCCCCC(=O)*; γGlu = O=C(O)[C@H](CCC(=O)[*:2])N[*:1]; Trx = NC[C@H]1CC[C@H](C(=O)O)CC1; AEEA = NCCOCCOCC(=O)O

Assays:
Y2 receptor = biological target: T1, Y2 receptor (Homo sapiens, UniProt P49146); assay: Y2 receptor ACTOne based FLIPR assay (cAMP biosensor); format: cell-based; conditions: Table 2, PP analogues; ACTOne HEK-293 cells; read-out: Y2 cAMP EC50
T1 construct: host or cells: ACTOne HEK-293 cells
T1 sequence (P49146 1-381): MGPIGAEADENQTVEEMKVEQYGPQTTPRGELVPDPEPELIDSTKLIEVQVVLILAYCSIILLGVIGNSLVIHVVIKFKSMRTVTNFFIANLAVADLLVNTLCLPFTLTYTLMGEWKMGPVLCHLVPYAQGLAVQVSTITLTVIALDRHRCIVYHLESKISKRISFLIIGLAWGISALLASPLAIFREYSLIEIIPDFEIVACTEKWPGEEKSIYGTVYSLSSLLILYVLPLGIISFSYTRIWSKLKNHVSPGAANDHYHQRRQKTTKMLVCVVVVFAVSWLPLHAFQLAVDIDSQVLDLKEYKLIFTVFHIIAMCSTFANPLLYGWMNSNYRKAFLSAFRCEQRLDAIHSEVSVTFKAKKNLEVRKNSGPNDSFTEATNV

Y4 receptor = biological target: T2, Y4 receptor (Homo sapiens, UniProt P50391); assay: Y4 receptor ACTOne based FLIPR assay (cAMP biosensor); format: cell-based; conditions: Table 2, PP analogues; ACTOne HEK-293 cells; read-out: Y4 cAMP EC50
T2 construct: host or cells: ACTOne HEK-293 cells
T2 sequence (P50391 whole entry): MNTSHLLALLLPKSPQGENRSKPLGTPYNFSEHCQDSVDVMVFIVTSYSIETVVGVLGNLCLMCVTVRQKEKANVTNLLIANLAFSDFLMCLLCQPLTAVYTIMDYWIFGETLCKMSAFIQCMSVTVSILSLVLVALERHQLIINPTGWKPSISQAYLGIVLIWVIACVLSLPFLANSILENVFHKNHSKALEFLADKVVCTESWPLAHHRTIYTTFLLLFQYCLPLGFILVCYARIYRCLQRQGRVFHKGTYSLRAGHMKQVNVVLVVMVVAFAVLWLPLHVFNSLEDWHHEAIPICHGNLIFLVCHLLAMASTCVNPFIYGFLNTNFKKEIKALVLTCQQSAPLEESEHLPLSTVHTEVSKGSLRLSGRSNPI

in vivo = conditions: Göttingen, minipig
In short: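 Catheterised mini-pigs received compound i.v. at 10 nmol/kg in pH 4.0 phosphate/NaCl/tween vehicle, or alternatively i.v. or s.c. at 1–30 nmol/kg in pH 8.0 K2HPO4/tween. Stabilised plasma was sampled up to 13 days and assayed by LC-MS (LLOQ 2 nM). Half-life came from non-compartmental analysis of individual animal profiles.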

SMILES	EC50 (Y2 receptor) [nM]	EC50 (Y4 receptor) [nM]	half-life (in vivo; iv, 10 nmol/kg) [h]	half-life (in vivo; iv, […]) [h]	half-life (in vivo; male, sc, […]) [h]
CC[C@H](C)[C@H](NC(=O)[C@H](Cc1ccc(O)cc1)NC(=O)[C@H](CCCNC(=N)N)NC(=O)[C@H](CCCCNC(=O)COCCOCCNC(=O)COCCOCCNC(=O)CC[C@H](NC(=O)[C@H]1CC[C@H](CNC(=O)CCCCCCCCCCCCCCCCCCC(=O)O)CC1)C(=O)O)NC(=O)[C@H](CC(C)C)NC(=O)[C@H](CC(=O)O)NC(=O)[C@H](C)NC(=O)[C@H](C)NC(=O)[C@H](Cc1ccc(O)cc1)NC(=O)[C@H](CCC(N)=O)NC(=O)[C@H](C)NC(=O)[C@H](CC(C)C)NC(=O)[C@H](CCC(N)=O)NC(=O)[C@H](CCC(=O)O)NC(=O)[C@@H]1CCCN1C(=O)[C@@H](NC(=O)[C@H](C)NC(=O)[C@H](CC(N)=O)NC(=O)[C@H](CC(=O)O)NC(=O)CNC(=O)[C@@H]1CCCN1C(=O)[C@H](Cc1ccc(O)cc1)NC(=O)[C@@H](NC(=O)[C@@H]1CCCN1C(=O)[C@H](CCC(=O)O)NC(=O)[C@H](CC(C)C)NC(=O)[C@@H]1CCCN1)C(C)C)[C@@H](C)O)C(=O)N[C@@H](CC(N)=O)C(=O)N[C@@H](CC(C)C)C(=O)N[C@@H](CC(C)C)C(=O)N[C@H](C(=O)N[C@@H](CCCNC(=N)N)C(=O)N1CCC[C@H]1C(=O)N[C@@H](CCCNC(=N)N)C(=O)N[C@@H](Cc1ccc(O)cc1)C(N)=O)[C@@H](C)O [SEQ ID NO: 50, N-epsilon25-[2-(2-{2-[2-(2-{2-[(S)-4-Carboxy-4-({trans-4-[(19-carboxynonadecanoylamino)methyl]cyclohexanecarbonyl}amino)butyrylamino]-ethoxy}ethoxy)acetylamino]ethoxy}ethoxy)acetyl][Leu17,Lys25,Leu30]hPP2-36] (H-PLEPVYPGDNATPEQLAQYAADLK([AEEA-AEEA-γGlu-Trx-C20 diacid])RYINLLTRPRY-NH2)	> 1000	> 1000	82	–	–
CC[C@H](C)[C@H](NC(=O)[C@H](Cc1ccc(O)cc1)NC(=O)[C@H](CCCNC(=N)N)NC(=O)[C@H](CCCNC(=N)N)NC(=O)[C@H](CC(C)C)NC(=O)[C@H](CC(=O)O)NC(=O)[C@H](C)NC(=O)[C@H](C)NC(=O)[C@H](Cc1ccc(O)cc1)NC(=O)[C@H](CCC(N)=O)NC(=O)[C@H](C)NC(=O)[C@H](CC(C)C)NC(=O)[C@H](CCC(N)=O)NC(=O)[C@H](CCC(=O)O)NC(=O)[C@@H]1CCCN1C(=O)[C@@H](NC(=O)[C@H](C)NC(=O)[C@H](CC(N)=O)NC(=O)[C@H](CC(=O)O)NC(=O)CNC(=O)[C@@H]1CCCN1C(=O)[C@H](Cc1ccc(O)cc1)NC(=O)[C@@H](NC(=O)[C@@H]1CCCN1C(=O)[C@H](CCC(=O)O)NC(=O)[C@H](CC(C)C)NC(=O)[C@@H]1CCCN1)C(C)C)[C@@H](C)O)C(=O)N[C@@H](CC(N)=O)C(=O)N[C@@H](CC(C)C)C(=O)N[C@@H](CC(C)C)C(=O)N[C@H](C(=O)N[C@@H](CCCCNC(=O)COCCOCCNC(=O)COCCOCCNC(=O)CC[C@H](NC(=O)CCCCCCCCCCCCCCCCC(=O)O)C(=O)O)C(=O)N1CCC[C@H]1C(=O)N[C@@H](CCCNC(=N)N)C(=O)N[C@@H](Cc1ccc(O)cc1)C(N)=O)[C@@H](C)O [SEQ ID NO: 41, N-epsilon33-[2-(2-{2-[2-(2-{2-[(S)-4-Carboxy-4-(17-carboxyheptadecanoylamino)butyrylamino]ethoxy}ethoxy)acetylamino]-ethoxy}ethoxy)acetyl][Leu17,Leu30,Lys33]hPP2-36] (H-PLEPVYPGDNATPEQLAQYAADLRRYINLLTK([AEEA-AEEA-γGlu-C18 diacid])PRY-NH2)	> 1000	> 1000	–	105	93
